From patent US20250000936A1, “TREATMENT OF GEOGRAPHIC ATROPHY” (Apellis Pharmaceuticals, Inc., priority 2021, published 2025)
Where two headings read alike, the source gives them in different places.

Experiments:
[1] = system: patients with geographic atrophy (GA) secondary to age-related macular degeneration (AMD); test: OAKS Phase 3 study: GA lesion growth in study eye by fundus autofluorescence; format: in vivo, human
Description: (§1) This Example describes 12-month results from two Phase 3 multi-center, randomized, double-masked, sham-controlled studies (“DERBY” and “OAKS”) to compare the efficacy and safety of intravitreal APL-2 (pegcetacoplan, also referred to as “Study Drug” in this Example) therapy with sham injections in patients with geographic atrophy (GA) secondary to age-related macular degeneration (AMD).
(§2) To participate in the studies, subjects must have been diagnosed with GA of the macula secondary to AMD in the study eye. At screening, male and female subjects were required to fulfill all of the following inclusion criteria to be eligible for participation in the study. If both eyes met the inclusion criteria, the eye with the worst normal luminance visual acuity at the screening visit was designated as the study eye. If both eyes had the same visual acuity, the right eye was selected as the study eye. Ocular-specific inclusion criteria applied to the study eye only, unless otherwise specified.
The design of the DERBY and OAKS studies are schematically depicted in FIG. 2. […] As part of the screening process, the reading center evaluated FAF, OCT, Digital Color Fundus Photograph (DCFP), Near Infrared Reflectance (NIR), and fluorescein angiography (FA) to provide an objective assessment of subject eligibility. […]
Subjects were analyzed in the treatment arm assigned at randomization. […]

[2] = system: patients with geographic atrophy (GA) secondary to age-related macular degeneration (AMD); test: DERBY Phase 3 study: GA lesion growth in study eye by fundus autofluorescence; format: in vivo, human; conditions: for reduction in GA lesion growth from baseline compared to sham: over 24 months; for reduction in lesion growth in the study eye versus the untreated study eye: bilateral GA; for reduction in lesion growth in the study eye versus the untreated study eye / percentage reduction versus sham pooled: 18 months
Description: as §1, §2
The design of the DERBY and OAKS studies are schematically depicted in FIG. 2. Each subject was assigned a unique screening number after signing the informed consent. Subjects who completed the study screening assessments and met all the eligibility criteria entered the study and were randomized on Day 1. As part of the screening process, the reading center evaluated FAF, OCT, Digital Color Fundus Photograph (DCFP), Near Infrared Reflectance (NIR), and fluorescein angiography (FA) to provide an objective assessment of subject eligibility. Subjects were randomized 2:2:1:1 to receive treatment with Study Drug monthly (PM), Study Drug every other month (PEOM), sham injection monthly (SM) or sham injection every other month (SEOM), respectively.
The Study Drug was pegcetacoplan (also referred to as “APL-2”) (see FIG. 1), which was provided for intravitreal injection at 15 mg/0.1 mL (150 mg/mL) as a sterile, isotonic solution of pegcetacoplan in acetate-buffer, pH 5.0, containing trehalose, supplied in stoppered glass vials.
The primary endpoint in the studies was the change from baseline to Month 12 in total area of GA lesion(s) in the study eye (in mm^2) based on Fundus Autofluorescence (FAF). Key secondary endpoints included change from baseline in the mean threshold sensitivity of all points (study eye) assessed by mesopic microperimetry at Month 24; change from baseline in monocular maximum reading speed (study eye), at Month 24 as assessed by MNRead or Radner reading charts (in select sites); change from baseline in mean FRI Index score (subject-level assessment) at Month 24; and change from baseline in NL-BCVA score (study eye) at Month 24 as assessed by Early Treatment Diabetic Retinopathy Study (ETDRS) chart. Additional secondary endpoints included change from baseline in LL-BCVA score (study eye) over time as assessed by ETDRS chart; change from baseline in the total area of GA lesion(s) in the study eye (in mm^2) as assessed by FAF over time other than Month 12; change from baseline in monocular critical print size (study eye), as assessed by MNRead or Radner reading charts (in select sites) over time; change from baseline in the NEI VFQ-25 distance activity subscale score (in select sites) (subject level assessment) over time; change from baseline in the number of scotomatous points assessed by mesopic microperimetry over time; and change from baseline in the mean threshold sensitivity within 500 microns outside the GA lesion, (perilesional points) assessed by mesopic microperimetry over time.
Two sham treatment arms (SM and SEOM) were pooled into a single control (Sham) group for analyses.
Subjects were analyzed in the treatment arm assigned at randomization.
Unless otherwise noted, hypothesis testing and estimation of treatment effects will be performed with a mixed effect model for repeated measure (MMRM) that includes data from all three treatment arms (PM, PEOM, and Sham). […]

[3] = system: patients with geographic atrophy (GA) secondary to age-related macular degeneration (AMD); test: OAKS Phase 3 study: GA lesion growth in study eye by fundus autofluorescence; format: in vivo, human; conditions: for reduction in GA lesion growth from baseline compared to sham: over 24 months; for reduction in lesion growth in the study eye versus the untreated study eye, after adjusting for sham / reduction in lesion growth in the study eye versus the untreated study eye: bilateral GA; for reduction in lesion growth in the study eye versus the untreated study eye, after adjusting for sham / reduction in lesion growth in the study eye versus the untreated study eye / percentage reduction versus sham pooled: 18 months
patients with GA = conditions: FILLY, month 12, cited from earlier work
[4] = post-hoc quartiles of GA lesion growth over 18 months (FIG. 27)

## Poly(oxy-1,2-ethanediyl), α-hydro-ω-hydroxy-, 15,15′-diester with N-acetyl-L-isoleucyl-L-cysteinyl-L-valyl-1-methyl-L-tryptophyl-L-glutaminyl-L-α-aspartyl-L-tryptophylglycyl-L-alanyl-L-histidyl-L-arginyl-L-cysteinyl-L-threonyl-2-[2-(2-aminoethoxy) ethoxy]acetyl-N^6-carboxy-L-lysinamide cyclic (2->12)-(disulfide) [pegcetacoplan]
[1]; distance ≤250 microns, every other month, p=0.0008
  reduction in GA lesion growth versus sham: 19%
[1]; lesion distance to foveal center point >250 microns, monthly, p=0.0012
  reduction in GA lesion growth versus sham: 30%
[2]; EOM, months 18-24, p=0.0002
  reduction of GA lesion growth versus sham: 29%
[2]; EOM, p 0.0030 nominal
  reduction in GA lesion growth from baseline compared to sham: 16%
[2]; every other month, p<0.0001
  reduction in lesion growth in the study eye versus the untreated study eye: 16%
[2]; monthly, p=0.0053
  reduction in lesion growth in the study eye versus the untreated study eye: 12%
[2]; distance >250 microns, every other month, p=0.0689
  reduction in GA lesion growth versus sham: 19%
[2]; distance >250 microns, monthly, p=0.2691
  reduction in GA lesion growth versus sham: 13%
[2]; distance ≤250 microns, every other month, p=0.0724
  reduction in GA lesion growth versus sham: 12%
[2]; distance ≤250 microns, monthly, p=0.0490
  reduction in GA lesion growth versus sham: 12%
[2]; every other month, >50 microns, p=0.0047
  percentage reduction versus sham pooled: 24%
[2]; every other month, >100 microns, p=0.0022
  percentage reduction versus sham pooled: 26%
[2]; every other month, >150 microns, p=0.0076
  percentage reduction versus sham pooled: 24%
[2]; every other month, >200 microns, p 0.0229
  percentage reduction versus sham pooled: 20%
[2]; every other month, month 12, p=0.0750
  reduction in GA lesion growth vs pooled sham: 11%
[2]; every other month, month 18, p=0.0023
  reduction in GA lesion growth, covariate-adjusted post-hoc analysis: 16%
[2]; every other month, month 18, p=0.0035
  reduction in extrafoveal GA lesion growth, covariate-adjusted: 24%
[2]; every other month, month 18, p=0.0075
  reduction in extrafoveal GA lesion growth vs pooled sham: 23%
[2]; every other month, month 18, p=0.0332 nominal
  reduction in GA lesion growth vs pooled sham: 12%
[2]; every other month, month 18, p=0.1723
  reduction in foveal GA lesion growth, covariate-adjusted: 9%
[2]; every other month, month 18, p=0.5538
  reduction in foveal GA lesion growth vs pooled sham: 4%
[2]; every other month, months 6-12 segment (FIG. 12A)
  reduction in GA lesion growth vs pooled sham: 16%
[2]; monthly, >50 microns, p=0.0433
  percentage reduction versus sham pooled: 18%
[2]; monthly, >100 microns, p=0.0266
  percentage reduction versus sham pooled: 20%
[2]; monthly, >150 microns, p 0.0468
  percentage reduction versus sham pooled: 19%
[2]; monthly, >200 microns, p=0.0985
  percentage reduction versus sham pooled: 16%
[2]; monthly, month 12, p=0.0528
  reduction in GA lesion growth vs pooled sham: 12%
[2]; monthly, month 18, p 0.0254 nominal
  reduction in GA lesion growth vs pooled sham: 13%
[2]; monthly, month 18, p=0.0024
  reduction in GA lesion growth, covariate-adjusted post-hoc analysis: 16%
[2]; monthly, month 18, p=0.0280
  reduction in foveal GA lesion growth, covariate-adjusted: 14%
[2]; monthly, month 18, p=0.0380
  reduction in extrafoveal GA lesion growth, covariate-adjusted: 18%
[2]; monthly, month 18, p=0.0606
  reduction in extrafoveal GA lesion growth vs pooled sham: 17%
[2]; monthly, month 18, p=0.2015
  reduction in foveal GA lesion growth vs pooled sham: 9%
[2]; monthly, months 6-12 segment (FIG. 12A)
  reduction in GA lesion growth vs pooled sham: 17%
[2]; monthly, months 18-24, p<0.0001
  reduction of GA lesion growth versus sham: 36%
[2]; monthly, p=0.0004 nominal
  reduction in GA lesion growth from baseline compared to sham: 19%
[2]; [4]
  decrease of patients in Q4 (fast progressors), relative to sham: 33%
  increase of patients in Q1 (slow progressors), relative to sham: 15%
[3]; EOM, months 18-24, p=0.0007
  reduction of GA lesion growth versus sham: 25%
[3]; EOM, p 0.0002 nominal
  reduction in GA lesion growth from baseline compared to sham: 18%
[3]; every other month
  reduction in lesion growth in the study eye versus the untreated study eye, after adjusting for sham: 15%
[3]; every other month, p=0.1274
  reduction in lesion growth in the study eye versus the untreated study eye: 7%
[3]; monthly
  reduction in lesion growth in the study eye versus the untreated study eye, after adjusting for sham: 26%
[3]; monthly, p<0.0001
  reduction in lesion growth in the study eye versus the untreated study eye: 19%
[3]; distance >250 microns, every other month, p=0.1203
  reduction in GA lesion growth versus sham: 15%
[3]; distance ≤250 microns, monthly, p=0.0002
  reduction in GA lesion growth versus sham: 22%
[3]; every other month, >50 microns, p=0.0430
  percentage reduction versus sham pooled: 17%
[3]; every other month, >100 microns, p=0.0338
  percentage reduction versus sham pooled: 18%
[3]; every other month, >150 microns, p=0.0575
  percentage reduction versus sham pooled: 17%
[3]; every other month, >200 microns, p=0.1002
  percentage reduction versus sham pooled: 15%
[3]; every other month, month 12, p=0.0052
  reduction in GA lesion growth vs pooled sham: 16%
[3]; every other month, month 18, p 0.0422
  reduction in extrafoveal GA lesion growth vs pooled sham: 17%
[3]; every other month, month 18, p=0.0002
  reduction in GA lesion growth, covariate-adjusted post-hoc analysis: 18%
[3]; every other month, month 18, p=0.0008
  reduction in foveal GA lesion growth, covariate-adjusted: 19%
[3]; every other month, month 18, p=0.0018 nominal
  reduction in GA lesion growth vs pooled sham: 16%
[3]; every other month, month 18, p=0.0020
  reduction in foveal GA lesion growth vs pooled sham: 19%
[3]; every other month, month 18, p=0.0673
  reduction in extrafoveal GA lesion growth, covariate-adjusted: 15%
[3]; monthly, >100 microns, p<0.0001
  percentage reduction versus sham pooled: 34%
[3]; monthly, >150 microns, p<0.0001
  percentage reduction versus sham pooled: 34%
[3]; monthly, >200 microns, p<0.0001
  percentage reduction versus sham pooled: 34%
[3]; monthly, distance to foveal center point >50 microns, p<0.0001
  percentage reduction versus sham pooled: 33%
[3]; monthly, month 12, p=0.0003
  reduction in GA lesion growth vs pooled sham: 22%
[3]; monthly, month 18, p<0.0001
  reduction in GA lesion growth, covariate-adjusted post-hoc analysis: 26%
  reduction in extrafoveal GA lesion growth vs pooled sham: 33%
  reduction in extrafoveal GA lesion growth, covariate-adjusted: 33%
[3]; monthly, month 18, p<0.0001 nominal
  reduction in GA lesion growth vs pooled sham: 22%
[3]; monthly, month 18, p=0.0044
  reduction in foveal GA lesion growth, covariate-adjusted: 19%
[3]; monthly, month 18, p=0.0105
  reduction in foveal GA lesion growth vs pooled sham: 18%
[3]; monthly, months 18-24, p=0.0080
  reduction of GA lesion growth versus sham: 24%
[3]; monthly, p<0.0001 nominal
  reduction in GA lesion growth from baseline compared to sham: 22%
[3]; [4]
  decrease of patients in Q4 (fast progressors), relative to sham: 43%
  increase of patients in Q1 (slow progressors), relative to sham: 83%
Patients with GA; every other month, p=0.067
  reduction in change from baseline in square root GA lesion size vs sham: 20%
Patients with GA; monthly, p=0.008
  reduction in change from baseline in square root GA lesion size vs sham: 29%
